The values below come from patent US20110112151A1, “COMPOUND CAPABLE OF INHIBITING 11-BETA HYDROXYSTERIOD DEHYDROGENASE” (priority 2008, published 2011).

Molecules are shown by their SMILES.

T1 sequence (P28845 whole entry): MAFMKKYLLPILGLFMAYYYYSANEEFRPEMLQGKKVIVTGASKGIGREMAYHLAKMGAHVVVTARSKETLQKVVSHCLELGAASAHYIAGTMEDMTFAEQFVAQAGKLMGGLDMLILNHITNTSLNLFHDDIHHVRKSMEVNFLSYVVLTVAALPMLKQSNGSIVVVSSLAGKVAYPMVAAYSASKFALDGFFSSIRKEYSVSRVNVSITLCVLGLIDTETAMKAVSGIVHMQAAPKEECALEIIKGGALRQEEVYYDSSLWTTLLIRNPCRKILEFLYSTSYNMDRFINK

This assay has as its target T1, 11β-HSD1 (Homo sapiens, UniProt P28845).
T1 construct: expressed in transfected cells; host or cells: HEK 293 (stably transfected, HEK 293/HSD11B1)
In words: 11β-HSD1 HEK assay (cell based assay, SPA). To be noted: HEK293; at 1 μM; whole HEK 293 cells stably transfected with the HSD11B1 gene, 3H-cortisone substrate; read-out: Activity (inhibition of 11β-HSD1). On the procedure:
11β-HSD1 HEK Assay Protocol (Cell Based Assay)
11β-HSD1 activity is measured in whole HEK 293 cells stably transfected with the HSD11B1 gene. Cells are incubated in 96-well microplates in the presence of tritiated substrate. Enzyme activity is determined by measuring the amount of tritated product by scintillation proximity assay (SPA). Assay plates contain internal high and low controls to allow calculation of percentage inhibition.
1. […] 2. When the cells are 80% confluent the medium is removed from each well. 100 μl fresh, serum-free, medium containing ^3H-cortisone and test compound in 1% DMSO is added to each well*. Control wells are also dispensed. […] 3. The plate is incubated at 37° C. for the required time period. 4. 50 μl of media is removed from each well and transferred to a microplate containing 100 μl of a pre-incubated mixture of anti-cortisol antibody and SPA bead. The mixture is incubated with gentle shaking until equilibrium is reached, before transferring to a scintillation counter to establish the enzyme activity in each sample.
10 μl of compound is dispensed into each well of a 96-well microplate in 10% DMSO at 100 μM concentration. 90 μl media containing ^3H-cortisone is added to each well. The compound/media/substrate mixture is then transferred to the assay plate containing the cells. […]
One may read the inhibition as the change of the read-out against control, counted positive when it falls. As for `Cn1ccnc1SCC(=O)C1(c2ccc(Cl)cc2)CCCCC1` [Example 40, 1-[1-(4-Chloro-phenyl)-cyclohexyl]-2-(1-methyl-1H-imidazol-2-ylsulfanyl)-ethanone], the inhibition at 1 µM was 20 to 60%.

For the compound `O=C(CSc1ccccn1)C12CC3CC(CC(C3)C1)C2` [Example 12, 1-Adamantan-1-yl-2-(pyridin-2-ylsulfanyl)-ethanone], the inhibition at 1 µM is > 60%.

`Cc1cc(C)c(C(=O)C[S+]([O-])c2ccccn2)c(C)c1` (stereo not shown) [Example 82, 1-mesityl-2-(pyridin-2-ylsulfinyl)ethanone]: the inhibition at 1 µM was < 20%.

`Cn1cnnc1[S+]([O-])CC(=O)C1(c2ccc(Cl)cc2)CCC1` (stereo not shown) [Example 109, 1-(1-(4-Chlorophenyl)cyclobutyl)-2-(4-methyl-4H-1,2,4-triazol-3-ylsulfinyl)ethanone]: the inhibition at 1 µM is < 20%.

On to `O=C(CSCc1ccc(C(F)(F)F)nc1)C12CC3CC(CC(C3)C1)C2` [Example 59, 1-Adamantan-1-yl-2-(6-trifluoromethyl-pyridin-3-ylmethylsulfanyl)-ethanone], for which the inhibition at 1 µM lay in the range of 20 to 60%.

Consider `Cn1ccnc1S(=O)(=O)CC(=O)C1(c2ccc(Cl)cc2)CCCC1` [Example 43, 1-[1-(4-Chloro-phenyl)-cyclopentyl]-2-(1-methyl-1H-imidazole-2-sulfonyl)-ethanone], for which the inhibition at 1 µM lay within 20 to 60%.

Regarding `Cc1ccc(OCC(=O)C(C)(C)c2ccc(Cl)cc2)cn1` [Example 71, 3-(4-Chloro-phenyl)-3-methyl-1-(6-methyl-pyridin-3-yloxy)-butan-2-one], the inhibition at 1 µM was > 60%.

Regarding `O=C(CS(=O)(=O)Cc1ccc(C(F)(F)F)nc1)C12CC3CC(CC(C3)C1)C2` [Example 69, 1-Adamantan-1-yl-2-(6-trifluoromethyl-pyridin-3-ylmethanesulfonyl)-ethanone], the inhibition at 1 µM lay within 20 to 60%.

Take `O=C(C[S+]([O-])c1ccccn1)C1(c2ccc(Cl)cc2)CCCCC1` (stereo not shown) [Example 49, 1-[1-(4-Chloro-phenyl)-cyclohexyl]-2-(pyridine-2-sulfinyl)-ethanone]: the inhibition at 1 µM was < 20%.

In the case of `COc1cccnc1COCC(=O)C12CC3CC(CC(C3)C1)C2` [Example 86, 2-((3-Methoxypyridin-2-yl)methoxy)-1-adamantylethanone], the inhibition at 1 µM is > 60%.

In the case of `O=C(CSCc1ccncc1)C12CC3CC(CC(C3)C1)C2` [Example 81, 1-Adamantan-1-yl-2-(pyridin-4-ylmethylsulfanyl)-ethanone], the inhibition at 1 µM is > 60%.

For the compound `Cn1cnnc1SCC(=O)C(C)(C)c1ccc(Cl)cc1` [Example 99, 3-(4-Chlorophenyl)-3-methyl-1-(4-methyl-4H-1,2,4-triazol-3-ylthio)butan-2-one], the inhibition at 1 µM lay within 20 to 60%.

For `O=C(COc1ccc(C(F)(F)F)cn1)C12CC3CC(CC(C3)C1)C2` [Example 55, 1-Adamantan-1-yl-2-(5-trifluoromethyl-pyridin-2-yloxy)-ethanone], the inhibition at 1 µM lay in the range of 20 to 60%.

Consider `O=C(COCc1ccc(C(F)(F)F)nc1)C12CC3CC(CC(C3)C1)C2` [Example 56, 1-Adamantan-1-yl-2-(6-trifluoromethyl-pyridin-3-ylmethoxy)-ethanone], for which the inhibition at 1 µM lay within 20 to 60%.

`O=C(C[S+]([O-])c1ccc(C(F)(F)F)cn1)C12CC3CC(CC(C3)C1)C2` (stereo not shown) [Example 68, 1-Adamantan-1-yl-2-(5-trifluoromethyl-pyridine-2-sulfinyl)-ethanone]: the inhibition at 1 µM was in the range of 20 to 60%.

Regarding `Cn1cnnc1SCC(=O)C1(c2ccc(Cl)cc2)CC1` [Example 100, 1-(1-(4-Chlorophenyl)cyclopropyl)-2-(4-methyl-4H-1,2,4-triazol-3-ylthio)ethanone], the inhibition at 1 µM lay in the range of 20 to 60%.

For `CC(=O)Nc1nnc(S(=O)(=O)CC(=O)C23CC4CC(CC(C4)C2)C3)s1` [Example 93, N-(5-{[2-(Adamantan-1-yl)-2-oxoethane]sulfonyl}-1,3,4-thiadiazol-2-yl)acetamide], the inhibition at 1 µM was > 60%.

For the compound `Cc1cc(C)c(C(=O)CSc2nccn2C)c(C)c1` [Example 74, 2-(1-Methyl-1H-imidazol-2-ylsulfanyl)-1-(2,4,6-trimethyl-phenyl)-ethanone], the inhibition at 1 µM is < 20%.

In the case of `Cc1cccc(S(=O)(=O)CC(=O)C23CC4CC(CC(C4)C2)C3)n1` [Example 30, 1-(adamantan-1-yl)-2-[(6-methylpyridine-2-)sulfonyl]ethan-1-one], the inhibition at 1 µM was > 60%.

As to `O=C(CS(=O)(=O)Cc1cccnc1)C12CC3CC(CC(C3)C1)C2` [Example 9, 1-Adamantan-1-yl-2-(pyridin-3-ylmethanesulfonyl)-ethanone], the inhibition at 1 µM was > 60%.

On to `O=C(CSc1ccccn1)C1(c2ccc(Cl)cc2)CCCCC1` [Example 47, 1-[1-(4-Chloro-phenyl)-cyclohexyl]-2-(pyridin-2-ylsulfanyl)-ethanone], for which the inhibition at 1 µM was in the range of 20 to 60%.

With `O=C(CS(=O)(=O)Cc1ccncc1)C12CC3CC(CC(C3)C1)C2` [Example 83, 1-Adamantan-1-yl-2-(pyridin-4-ylmethanesulfonyl)-ethanone], the inhibition at 1 µM is > 60%.

In the case of `O=C(CSc1ccccn1)C1(c2ccc(Cl)cc2)CCC1` [Example 20, 1-[1-(4-Chloro-phenyl)-cyclobutyl]-2-(pyridin-2-ylsulfanyl)-ethanone], the inhibition at 1 µM lay within 20 to 60%.

Turning to `O=C(CS(=O)(=O)c1ccccn1)C1(c2ccc(Cl)cc2)CCCCC1` [Example 48, 1-[1-(4-Chloro-phenyl)-cyclohexyl]-2-(pyridine-2-sulfonyl)-ethanone], the inhibition at 1 µM lay within 20 to 60%.

Regarding `Cn1ccnc1SCC(=O)C1(c2ccc(Cl)cc2)CC1` [Example 1, 1-[1-(4-Chloro-phenyl)-cyclopropyl]-2-(1-methyl-1H-imidazol-2-ylsulfanyl)-ethanone], the inhibition at 1 µM was > 60%.

For `Cc1cc(C)c(C(=O)CSc2ccccn2)c(C)c1` [Example 73, 2-(Pyridin-2-ylsulfanyl)-1-(2,4,6-trimethyl-phenyl)-ethanone], the inhibition at 1 µM is < 20%.

On to `COc1cncc(COCC(=O)C23CC4CC(CC(C4)C2)C3)c1` [Example 98, 1-Adamantan-1-yl-2-(5-methoxy-pyridin-3-ylmethoxy)-ethanone], for which the inhibition at 1 µM was > 60%.

As for `O=C(COc1cncc(Cl)c1)C12CC3CC(CC(C3)C1)C2` [Example 57, 1-Adamantan-1-yl-2-(5-chloro-pyridin-3-yloxy)-ethanone], the inhibition at 1 µM fell in the range of 20 to 60%.

As for `O=C(CS(=O)(=O)c1ccccn1)C1(c2ccc(Cl)cc2)CC1` [Example 6, 1-[1-(4-Chloro-phenyl)-cyclopropyl]-2-(pyridine-2-sulfonyl)-ethanone], the inhibition at 1 µM was < 20%.

`Cn1ccnc1SCC(=O)C1(c2ccc(Cl)cc2)CCC1` [Example 21, 1-[1-(4-Chloro-phenyl)-cyclobutyl]-2-(1-methyl-1H-imidazol-2-ylsulfanyl)-ethanone]: the inhibition at 1 µM lay in the range of 20 to 60%.

Turning to `O=C(CS(=O)(=O)Cc1ccccn1)C12CC3CC(CC(C3)C1)C2` [Example 16, 1-Adamantan-1-yl-2-(pyridin-2-ylmethanesulfonyl)-ethanone], the inhibition at 1 µM was > 60%.

Regarding `Cn1ccnc1[S+]([O-])CC(=O)C1(c2ccc(Cl)cc2)CCC1` (stereo not shown) [Example 25, 1-[1-(4-Chloro-phenyl)-cyclobutyl]-2-(1-methyl-1H-imidazole-2-sulfinyl)-ethanone], the inhibition at 1 µM was < 20%.

Turning to `Cn1ccnc1S(=O)(=O)CC(=O)C1(c2ccc(Cl)cc2)CCC1` [Example 24, 1-[1-(4-Chloro-phenyl)-cyclobutyl]-2-(1-methyl-1H-imidazole-2-sulfonyl)-ethanone], the inhibition at 1 µM was < 20%.

`NC(=O)c1ccc(SCC(=O)C23CC4CC(CC(C4)C2)C3)nc1` [Example 37, 6-(2-Adamantan-1-yl-2-oxo-ethylsulfanyl)-nicotinamide]: the inhibition at 1 µM is > 60%.

In the case of `O=C(CS(=O)(=O)c1ccccn1)C1(c2ccc(Cl)cc2)CCC1` [Example 22], the inhibition at 1 µM was < 20%.

As to `O=C(CSc1ccccn1)C1(c2ccc(Cl)cc2)CC1` [Example 4, 1-[1-(4-Chloro-phenyl)-cyclopropyl]-2-(pyridin-2-ylsulfanyl)-ethanone], the inhibition at 1 µM is < 20%.

In the case of `Cn1ccnc1SCC(=O)C(C)(C)c1ccc(Cl)cc1` [Example 52, 3-(4-Chloro-phenyl)-3-methyl-1-(1-methyl-1H-imidazol-2-ylsulfanyl)-butan-2-one], the inhibition at 1 µM was > 60%.

Consider `Cn1ccnc1SCC(=O)C1(c2ccc(Cl)cc2)CCCC1` [Example 41, 1-[1-(4-Chloro-phenyl)-cyclopentyl]-2-(1-methyl-1H-imidazol-2-ylsulfanyl)-ethanone], for which the inhibition at 1 µM is 20 to 60%.

For the compound `Cn1ccnc1S(=O)(=O)CC(=O)C1(c2ccc(Cl)cc2)CC1` [Example 3, 1-[1-(4-Chloro-phenyl)-cyclopropyl]-2-(1-methyl-1H-imidazole-2-sulfonyl)-ethanone], the inhibition at 1 µM is < 20%.

Consider `Cc1cc(C)c(C(=O)COc2ccc(C)nc2)c(C)c1` [Example 70, 2-(6-Methyl-pyridin-3-yloxy)-1-(2,4,6-trimethyl-phenyl)-ethanone], for which the inhibition at 1 µM was < 20%.
